# Measurements: ChEMBL document CHEMBL1155836, “Discovery of imidazole carboxamides as potent and selective CCK1R agonists” (Bioorg Med Chem Lett, 2008)
# Calls of active or inactive are those of the source. The calls are words filed in the database; no cut-off is given here.
# Biological target: T1, Gastrin/cholecystokinin type B receptor (Homo sapiens) (UniProt P32239)
# T1 sequence (whole entry): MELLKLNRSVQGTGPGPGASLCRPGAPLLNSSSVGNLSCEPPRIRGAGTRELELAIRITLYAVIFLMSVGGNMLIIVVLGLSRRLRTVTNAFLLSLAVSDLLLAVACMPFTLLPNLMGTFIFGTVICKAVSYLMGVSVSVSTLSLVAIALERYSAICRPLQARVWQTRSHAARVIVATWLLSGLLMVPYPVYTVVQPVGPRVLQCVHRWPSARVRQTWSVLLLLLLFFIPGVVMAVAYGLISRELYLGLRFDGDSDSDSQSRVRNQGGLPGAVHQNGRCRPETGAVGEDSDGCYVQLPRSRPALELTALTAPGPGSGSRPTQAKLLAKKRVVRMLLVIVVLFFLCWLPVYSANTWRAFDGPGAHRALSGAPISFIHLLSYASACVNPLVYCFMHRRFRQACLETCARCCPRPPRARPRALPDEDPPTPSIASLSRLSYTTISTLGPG
# Assay: Agonist activity against human CCK2 receptor
# Type: functional
row,SMILES,Activity
1,CCCOc1cccc(-n2cc(C(=O)N3CCN(c4ccc5ccccc5c4)CC3)nc2-c2ccc(C)cc2)c1,inactive
2,COc1cccc(-n2cc(C(=O)N3CCN(c4ccc5cnccc5c4)CC3)nc2-c2ccc(C)cc2)c1,inactive
3,CCc1cccc(-n2cc(C(=O)N3CCN(c4ccc5ccccc5c4)CC3)nc2-c2ccc(C)cc2)c1,inactive
4,Cc1ccc(-c2nc(C(=O)N3CCN(c4ccc5ccccc5c4)CC3)cn2-c2cccc(O)c2)cc1,inactive
5,Cc1ccc(-c2nc(C(=O)N3CCN(c4ccc5ccccc5c4)CC3)cn2-c2cccc3c2OCCO3)cc1,inactive
6,Cc1ccc(-c2nc(C(=O)N3CCN(c4ccc5ccccc5c4)CC3)cn2-c2cccc(OC(F)(F)F)c2)cc1,inactive

# Results, then the molecule that gave them:
row,Activity,SMILES
1,inactive,Cc1ccc(-c2nc(C(=O)N3CCN(c4ccc5ccccc5c4)CC3)cn2-c2cccc(OC(C)C)c2)cc1
2,inactive,COc1ccc(-n2cc(C(=O)N3CCN(c4ccc5ccccc5c4)CC3)nc2-c2ccc(C)cc2)cc1
3,inactive,COc1cccc(-n2cc(C(=O)N3CCN(c4ccc5ncccc5c4)CC3)nc2-c2ccc(C)cc2)c1
4,inactive,COc1cccc(-n2cc(C(=O)N3CCN(c4nc5ccccc5[nH]4)CC3)nc2-c2ccc(C)cc2)c1
5,inactive,COc1cccc(-n2cc(C(=O)N3CCN(c4cc5ccccc5cn4)CC3)nc2-c2ccc(C)cc2)c1
6,inactive,CCOc1cccc(-n2cc(C(=O)N3CCN(c4ccc5ccccc5c4)CC3)nc2-c2ccccc2)c1
7,inactive,CCOc1cccc(-n2cc(C(=O)N3CCN(c4ccc5ccccc5c4)CC3)nc2-c2ccccc2F)c1
8,inactive,CCOc1cccc(-n2cc(C(=O)N3CCN(c4ccc5ccccc5c4)CC3)nc2-c2ccc(F)cc2)c1
9,inactive,CCOc1cccc(-n2cc(C(=O)N3CCN(c4ccc5ccccc5c4)CC3)nc2-c2ccc(F)cc2F)c1

# Biological target: T1, Gastrin/cholecystokinin type B receptor (Homo sapiens)
# Assay: Agonist activity against human CCK2 receptor assessed as receptor activation at 10000 nM
# Type: functional
row,SMILES,Activity
1,CCCOc1cccc(-n2cc(C(=O)N3CCN(c4ccc5ccccc5c4)CC3)nc2-c2ccc(C)cc2)c1,< 21%
2,COc1cccc(-n2cc(C(=O)N3CCN(c4ccc5cnccc5c4)CC3)nc2-c2ccc(C)cc2)c1,< 20%
3,COc1cccc(-c2cc(C(=O)N3CCN(c4cccc(Cl)c4)CC3)nn2-c2ccc(C)cc2)c1,4.4%
4,CCc1cccc(-n2cc(C(=O)N3CCN(c4ccc5ccccc5c4)CC3)nc2-c2ccc(C)cc2)c1,< 21%
5,Cc1ccc(-c2nc(C(=O)N3CCN(c4ccc5ccccc5c4)CC3)cn2-c2cccc(O)c2)cc1,< 21%
6,Cc1ccc(-c2nc(C(=O)N3CCN(c4ccc5ccccc5c4)CC3)cn2-c2cccc3c2OCCO3)cc1,< 21%
7,Cc1ccc(-c2nc(C(=O)N3CCN(c4ccc5ccccc5c4)CC3)cn2-c2cccc(OC(F)(F)F)c2)cc1,< 21%

# Second part, the molecule after the results:
row,Activity,SMILES
1,< 21%,Cc1ccc(-c2nc(C(=O)N3CCN(c4ccc5ccccc5c4)CC3)cn2-c2cccc(OC(C)C)c2)cc1
2,< 21%,COc1ccc(-n2cc(C(=O)N3CCN(c4ccc5ccccc5c4)CC3)nc2-c2ccc(C)cc2)cc1
3,< 20%,COc1cccc(-n2cc(C(=O)N3CCN(c4ccc5ncccc5c4)CC3)nc2-c2ccc(C)cc2)c1
4,< 20%,COc1cccc(-n2cc(C(=O)N3CCN(c4nc5ccccc5[nH]4)CC3)nc2-c2ccc(C)cc2)c1
5,< 20%,COc1cccc(-n2cc(C(=O)N3CCN(c4cc5ccccc5cn4)CC3)nc2-c2ccc(C)cc2)c1
6,< 12%,CCOc1cccc(-n2cc(C(=O)N3CCN(c4ccc5ccccc5c4)CC3)nc2-c2ccccc2)c1
7,< 12%,CCOc1cccc(-n2cc(C(=O)N3CCN(c4ccc5ccccc5c4)CC3)nc2-c2ccccc2F)c1
8,< 12%,CCOc1cccc(-n2cc(C(=O)N3CCN(c4ccc5ccccc5c4)CC3)nc2-c2ccc(F)cc2)c1
9,< 12%,CCOc1cccc(-n2cc(C(=O)N3CCN(c4ccc5ccccc5c4)CC3)nc2-c2ccc(F)cc2F)c1

# Biological target: T2, Cholecystokinin receptor type A (Homo sapiens, UniProt P32238)
# T2 sequence (P32238 whole entry): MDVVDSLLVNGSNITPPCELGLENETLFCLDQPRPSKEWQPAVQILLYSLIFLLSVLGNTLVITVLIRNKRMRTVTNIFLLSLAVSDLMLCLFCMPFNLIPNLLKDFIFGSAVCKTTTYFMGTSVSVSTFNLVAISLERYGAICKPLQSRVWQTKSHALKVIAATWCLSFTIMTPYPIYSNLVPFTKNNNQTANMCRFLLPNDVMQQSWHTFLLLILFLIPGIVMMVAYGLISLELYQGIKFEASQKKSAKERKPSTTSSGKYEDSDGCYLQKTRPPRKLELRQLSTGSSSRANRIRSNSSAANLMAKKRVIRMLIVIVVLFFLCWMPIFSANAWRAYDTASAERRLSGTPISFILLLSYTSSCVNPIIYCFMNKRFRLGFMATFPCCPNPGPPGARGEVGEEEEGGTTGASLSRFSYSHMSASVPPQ
# Assay: Agonist activity against human CCK1 receptor
# Type: functional
row,SMILES,EC50
1,CCCOc1cccc(-n2cc(C(=O)N3CCN(c4ccc5ccccc5c4)CC3)nc2-c2ccc(C)cc2)c1,0.962 µM
2,COc1cccc(-n2cc(C(=O)N3CCN(c4ccc5cnccc5c4)CC3)nc2-c2ccc(C)cc2)c1,0.106 µM
3,COc1cccc(-c2cc(C(=O)N3CCN(c4cccc(Cl)c4)CC3)nn2-c2ccc(C)cc2)c1,0.308 µM
4,CCc1cccc(-n2cc(C(=O)N3CCN(c4ccc5ccccc5c4)CC3)nc2-c2ccc(C)cc2)c1,0.065 µM
5,Cc1ccc(-c2nc(C(=O)N3CCN(c4ccc5ccccc5c4)CC3)cn2-c2cccc(O)c2)cc1,0.082 µM
6,Cc1ccc(-c2nc(C(=O)N3CCN(c4ccc5ccccc5c4)CC3)cn2-c2cccc3c2OCCO3)cc1,0.471 µM
7,Cc1ccc(-c2nc(C(=O)N3CCN(c4ccc5ccccc5c4)CC3)cn2-c2cccc(OC(F)(F)F)c2)cc1,3.15 µM

# Molecules with a lower EC50, results first:
row,EC50,SMILES
1,0.053 µM,Cc1ccc(-c2nc(C(=O)N3CCN(c4ccc5ccccc5c4)CC3)cn2-c2cccc(OC(C)C)c2)cc1
2,0.02 µM,COc1ccc(-n2cc(C(=O)N3CCN(c4ccc5ccccc5c4)CC3)nc2-c2ccc(C)cc2)cc1
3,0.0093 µM,COc1cccc(-n2cc(C(=O)N3CCN(c4ccc5ncccc5c4)CC3)nc2-c2ccc(C)cc2)c1
4,0.0091 µM,COc1cccc(-n2cc(C(=O)N3CCN(c4nc5ccccc5[nH]4)CC3)nc2-c2ccc(C)cc2)c1
5,0.0084 µM,COc1cccc(-n2cc(C(=O)N3CCN(c4cc5ccccc5cn4)CC3)nc2-c2ccc(C)cc2)c1
6,0.0074 µM,CCOc1cccc(-n2cc(C(=O)N3CCN(c4ccc5ccccc5c4)CC3)nc2-c2ccccc2)c1
7,0.0063 µM,CCOc1cccc(-n2cc(C(=O)N3CCN(c4ccc5ccccc5c4)CC3)nc2-c2ccccc2F)c1
8,0.0029 µM,CCOc1cccc(-n2cc(C(=O)N3CCN(c4ccc5ccccc5c4)CC3)nc2-c2ccc(F)cc2)c1
9,0.0011 µM,CCOc1cccc(-n2cc(C(=O)N3CCN(c4ccc5ccccc5c4)CC3)nc2-c2ccc(F)cc2F)c1

# Biological target: T3, Cholecystokinin receptor type A (Homo sapiens) (UniProt P32238)
# T3 sequence (whole entry): T2 sequence (P32238 whole entry)
# Assay: Agonist activity against human CCK1 receptor assessed as receptor activation at 10000 nM
# Type: functional
row,SMILES,Activity
1,CCCOc1cccc(-n2cc(C(=O)N3CCN(c4ccc5ccccc5c4)CC3)nc2-c2ccc(C)cc2)c1,89%
2,COc1cccc(-n2cc(C(=O)N3CCN(c4ccc5cnccc5c4)CC3)nc2-c2ccc(C)cc2)c1,86%
3,COc1cccc(-c2cc(C(=O)N3CCN(c4cccc(Cl)c4)CC3)nn2-c2ccc(C)cc2)c1,82%
4,CCc1cccc(-n2cc(C(=O)N3CCN(c4ccc5ccccc5c4)CC3)nc2-c2ccc(C)cc2)c1,101%
5,Cc1ccc(-c2nc(C(=O)N3CCN(c4ccc5ccccc5c4)CC3)cn2-c2cccc(O)c2)cc1,102%
6,Cc1ccc(-c2nc(C(=O)N3CCN(c4ccc5ccccc5c4)CC3)cn2-c2cccc3c2OCCO3)cc1,70%
7,Cc1ccc(-c2nc(C(=O)N3CCN(c4ccc5ccccc5c4)CC3)cn2-c2cccc(OC(F)(F)F)c2)cc1,66%

# Results, then the molecule that gave them:
row,Activity,SMILES
1,94%,Cc1ccc(-c2nc(C(=O)N3CCN(c4ccc5ccccc5c4)CC3)cn2-c2cccc(OC(C)C)c2)cc1
2,110%,COc1ccc(-n2cc(C(=O)N3CCN(c4ccc5ccccc5c4)CC3)nc2-c2ccc(C)cc2)cc1
3,108%,COc1cccc(-n2cc(C(=O)N3CCN(c4ccc5ncccc5c4)CC3)nc2-c2ccc(C)cc2)c1
4,89%,COc1cccc(-n2cc(C(=O)N3CCN(c4nc5ccccc5[nH]4)CC3)nc2-c2ccc(C)cc2)c1
5,89%,COc1cccc(-n2cc(C(=O)N3CCN(c4cc5ccccc5cn4)CC3)nc2-c2ccc(C)cc2)c1
6,100%,CCOc1cccc(-n2cc(C(=O)N3CCN(c4ccc5ccccc5c4)CC3)nc2-c2ccccc2)c1
7,110%,CCOc1cccc(-n2cc(C(=O)N3CCN(c4ccc5ccccc5c4)CC3)nc2-c2ccccc2F)c1
8,96%,CCOc1cccc(-n2cc(C(=O)N3CCN(c4ccc5ccccc5c4)CC3)nc2-c2ccc(F)cc2)c1
9,103%,CCOc1cccc(-n2cc(C(=O)N3CCN(c4ccc5ccccc5c4)CC3)nc2-c2ccc(F)cc2F)c1

# Biological target: T2, Cholecystokinin receptor type A
# Assay: Inhibition of human CCK1 receptor
row,SMILES,IC50
1,CCCOc1cccc(-n2cc(C(=O)N3CCN(c4ccc5ccccc5c4)CC3)nc2-c2ccc(C)cc2)c1,0.16 µM
2,COc1cccc(-n2cc(C(=O)N3CCN(c4ccc5cnccc5c4)CC3)nc2-c2ccc(C)cc2)c1,0.19 µM
3,COc1cccc(-c2cc(C(=O)N3CCN(c4cccc(Cl)c4)CC3)nn2-c2ccc(C)cc2)c1,0.041 µM
4,CCc1cccc(-n2cc(C(=O)N3CCN(c4ccc5ccccc5c4)CC3)nc2-c2ccc(C)cc2)c1,0.043 µM
5,Cc1ccc(-c2nc(C(=O)N3CCN(c4ccc5ccccc5c4)CC3)cn2-c2cccc(O)c2)cc1,0.022 µM
6,Cc1ccc(-c2nc(C(=O)N3CCN(c4ccc5ccccc5c4)CC3)cn2-c2cccc3c2OCCO3)cc1,0.14 µM
7,Cc1ccc(-c2nc(C(=O)N3CCN(c4ccc5ccccc5c4)CC3)cn2-c2cccc(OC(F)(F)F)c2)cc1,0.13 µM

# Next, values leading:
row,IC50,SMILES
1,0.03 µM,Cc1ccc(-c2nc(C(=O)N3CCN(c4ccc5ccccc5c4)CC3)cn2-c2cccc(OC(C)C)c2)cc1
2,0.0069 µM,COc1ccc(-n2cc(C(=O)N3CCN(c4ccc5ccccc5c4)CC3)nc2-c2ccc(C)cc2)cc1
3,0.0086 µM,COc1cccc(-n2cc(C(=O)N3CCN(c4ccc5ncccc5c4)CC3)nc2-c2ccc(C)cc2)c1
4,0.017 µM,COc1cccc(-n2cc(C(=O)N3CCN(c4nc5ccccc5[nH]4)CC3)nc2-c2ccc(C)cc2)c1
5,0.0019 µM,COc1cccc(-n2cc(C(=O)N3CCN(c4cc5ccccc5cn4)CC3)nc2-c2ccc(C)cc2)c1
6,0.0034 µM,CCOc1cccc(-n2cc(C(=O)N3CCN(c4ccc5ccccc5c4)CC3)nc2-c2ccccc2)c1
7,0.0019 µM,CCOc1cccc(-n2cc(C(=O)N3CCN(c4ccc5ccccc5c4)CC3)nc2-c2ccccc2F)c1
8,0.0019 µM,CCOc1cccc(-n2cc(C(=O)N3CCN(c4ccc5ccccc5c4)CC3)nc2-c2ccc(F)cc2)c1
9,0.001 µM,CCOc1cccc(-n2cc(C(=O)N3CCN(c4ccc5ccccc5c4)CC3)nc2-c2ccc(F)cc2F)c1
